Patent US20120083522A1, “MODULATION OF INFLAMMATORY RESPONSES BY FACTOR XI” (Isis Pharmaceuitcals, inc., priority 2009, published 2012)
In the oligonucleotide strings, read from the 5' end, every base follows the letter of its sugar. An asterisk marks phosphorothioate; unmarked linkages are phosphodiester. Other units and linkages are bracketed, terminal groups are in braces. A string of capitals states the bases alone. e = 2'-O-(2-methoxyethyl) (MOE); [5mC] = 5-methylcytosine; d = 2'-deoxy (DNA)

What follows are substances tested on human Factor XI mRNA (assay: Dose-dependent inhibition and IC50 in HepG2 cells, electroporation (Example 15)). Conditions: electroporation.
Assay type: cell-based
Protocol: Cells were plated at a density of 20,000 cells per well and transfected using electroporation with 123.46 nM, 370.37 nM, 1,111.11 nM, 3,333.33 nM and 10,000 nM concentrations of antisense oligonucleotide, as specified in Table 52. After a treatment period of approximately 16 hours, RNA was isolated from the cells and Factor XI mRNA levels were measured by quantitative real-time PCR. Human Factor XI primer probe set RTS 2966 was used to measure mRNA levels. Factor XI mRNA levels were adjusted according to total RNA content, as measured by RIBOGREEN. Results are presented as percent inhibition of Factor XI, relative to untreated control cells.

| Substance | IC50 [µM] |
| --- | --- |
| 445503 (antisense GCATTGGTGCACAGTTTCTG; 6-8-6 gapmer chemical modifications, chemistry not fully specified) [compound 445503] | 5.9 |

Same assay, conditions: electroporation, 123.47 nM

| Substance | percent inhibition of Factor XI mRNA [%] |
| --- | --- |
| 445498 (antisense GGTGCACAGTTTCTGGCAGG; 6-8-6 gapmer chemistry, chemistry not fully specified) [compound 445498] | 3 |
| 416857 (antisense e[5mC]*eG*eG*e[5mC]*eA*dT*dT*dG*dG*dT*dG*d[5mC]*dA*d[5mC]*dA*eG*eT*eT*eT*e[5mC]) [compound 416857] | 2 |
| 445532 (antisense e[5mC]*eG*eG*e[5mC]*eA*dT*dT*dG*dG*dT*dG*d[5mC]*dA*e[5mC]*eA*eG*eT*eT) [compound 445532] | 5 |
| 445504 (antisense eG*eG*e[5mC]*eA*eT*eT*dG*dG*dT*dG*d[5mC]*dA*d[5mC]*dA*eG*eT*eT*eT*e[5mC]*eT) [compound 445504] | 8 |
| 416849 (antisense eG*e[5mC]*eA*e[5mC]*eA*dG*dT*dT*dT*d[5mC]*dT*dG*dG*d[5mC]*dA*eG*eG*e[5mC]*e[5mC]*eT) [compound 416849] | 5 |
| 445505 (antisense e[5mC]*eG*eG*e[5mC]*eA*eT*dT*dG*dG*dT*dG*d[5mC]*dA*d[5mC]*eA*eG*eT*eT*eT*e[5mC]) [compound 445505] | 12 |
| 445503 (antisense GCATTGGTGCACAGTTTCTG; 6-8-6 gapmer chemical modifications, chemistry not fully specified) [compound 445503] | 0 |

Same assay, conditions: electroporation, 370.37 nM

| Substance | percent inhibition of Factor XI mRNA [%] |
| --- | --- |
| 445498 (antisense GGTGCACAGTTTCTGGCAGG; 6-8-6 gapmer chemistry, chemistry not fully specified) [compound 445498] | 1 |
| 416857 (antisense e[5mC]*eG*eG*e[5mC]*eA*dT*dT*dG*dG*dT*dG*d[5mC]*dA*d[5mC]*dA*eG*eT*eT*eT*e[5mC]) [compound 416857] | 20 |
| 445532 (antisense e[5mC]*eG*eG*e[5mC]*eA*dT*dT*dG*dG*dT*dG*d[5mC]*dA*e[5mC]*eA*eG*eT*eT) [compound 445532] | 12 |
| 445504 (antisense eG*eG*e[5mC]*eA*eT*eT*dG*dG*dT*dG*d[5mC]*dA*d[5mC]*dA*eG*eT*eT*eT*e[5mC]*eT) [compound 445504] | 20 |
| 416849 (antisense eG*e[5mC]*eA*e[5mC]*eA*dG*dT*dT*dT*d[5mC]*dT*dG*dG*d[5mC]*dA*eG*eG*e[5mC]*e[5mC]*eT) [compound 416849] | 5 |
| 445505 (antisense e[5mC]*eG*eG*e[5mC]*eA*eT*dT*dG*dG*dT*dG*d[5mC]*dA*d[5mC]*eA*eG*eT*eT*eT*e[5mC]) [compound 445505] | 30 |
| 445503 (antisense GCATTGGTGCACAGTTTCTG; 6-8-6 gapmer chemical modifications, chemistry not fully specified) [compound 445503] | 0 |

Same assay, conditions: electroporation, 1,111.11 nM

| Substance | percent inhibition of Factor XI mRNA [%] |
| --- | --- |
| 445498 (antisense GGTGCACAGTTTCTGGCAGG; 6-8-6 gapmer chemistry, chemistry not fully specified) [compound 445498] | 27 |
| 416857 (antisense e[5mC]*eG*eG*e[5mC]*eA*dT*dT*dG*dG*dT*dG*d[5mC]*dA*d[5mC]*dA*eG*eT*eT*eT*e[5mC]) [compound 416857] | 35 |
| 445532 (antisense e[5mC]*eG*eG*e[5mC]*eA*dT*dT*dG*dG*dT*dG*d[5mC]*dA*e[5mC]*eA*eG*eT*eT) [compound 445532] | 39 |
| 445504 (antisense eG*eG*e[5mC]*eA*eT*eT*dG*dG*dT*dG*d[5mC]*dA*d[5mC]*dA*eG*eT*eT*eT*e[5mC]*eT) [compound 445504] | 38 |
| 416849 (antisense eG*e[5mC]*eA*e[5mC]*eA*dG*dT*dT*dT*d[5mC]*dT*dG*dG*d[5mC]*dA*eG*eG*e[5mC]*e[5mC]*eT) [compound 416849] | 26 |
| 445505 (antisense e[5mC]*eG*eG*e[5mC]*eA*eT*dT*dG*dG*dT*dG*d[5mC]*dA*d[5mC]*eA*eG*eT*eT*eT*e[5mC]) [compound 445505] | 39 |
| 445503 (antisense GCATTGGTGCACAGTTTCTG; 6-8-6 gapmer chemical modifications, chemistry not fully specified) [compound 445503] | 22 |

Same assay, conditions: electroporation, 3,333.33 nM

| Substance | percent inhibition of Factor XI mRNA [%] |
| --- | --- |
| 445498 (antisense GGTGCACAGTTTCTGGCAGG; 6-8-6 gapmer chemistry, chemistry not fully specified) [compound 445498] | 50 |
| 416857 (antisense e[5mC]*eG*eG*e[5mC]*eA*dT*dT*dG*dG*dT*dG*d[5mC]*dA*d[5mC]*dA*eG*eT*eT*eT*e[5mC]) [compound 416857] | 62 |
| 445532 (antisense e[5mC]*eG*eG*e[5mC]*eA*dT*dT*dG*dG*dT*dG*d[5mC]*dA*e[5mC]*eA*eG*eT*eT) [compound 445532] | 60 |
| 445504 (antisense eG*eG*e[5mC]*eA*eT*eT*dG*dG*dT*dG*d[5mC]*dA*d[5mC]*dA*eG*eT*eT*eT*e[5mC]*eT) [compound 445504] | 53 |
| 416849 (antisense eG*e[5mC]*eA*e[5mC]*eA*dG*dT*dT*dT*d[5mC]*dT*dG*dG*d[5mC]*dA*eG*eG*e[5mC]*e[5mC]*eT) [compound 416849] | 57 |
| 445505 (antisense e[5mC]*eG*eG*e[5mC]*eA*eT*dT*dG*dG*dT*dG*d[5mC]*dA*d[5mC]*eA*eG*eT*eT*eT*e[5mC]) [compound 445505] | 59 |
| 445503 (antisense GCATTGGTGCACAGTTTCTG; 6-8-6 gapmer chemical modifications, chemistry not fully specified) [compound 445503] | 36 |

Same assay, conditions: electroporation, 10,000.0 nM

| Substance | percent inhibition of Factor XI mRNA [%] |
| --- | --- |
| 445498 (antisense GGTGCACAGTTTCTGGCAGG; 6-8-6 gapmer chemistry, chemistry not fully specified) [compound 445498] | 58 |
| 416857 (antisense e[5mC]*eG*eG*e[5mC]*eA*dT*dT*dG*dG*dT*dG*d[5mC]*dA*d[5mC]*dA*eG*eT*eT*eT*e[5mC]) [compound 416857] | 72 |
| 445532 (antisense e[5mC]*eG*eG*e[5mC]*eA*dT*dT*dG*dG*dT*dG*d[5mC]*dA*e[5mC]*eA*eG*eT*eT) [compound 445532] | 70 |
| 445504 (antisense eG*eG*e[5mC]*eA*eT*eT*dG*dG*dT*dG*d[5mC]*dA*d[5mC]*dA*eG*eT*eT*eT*e[5mC]*eT) [compound 445504] | 68 |
| 416849 (antisense eG*e[5mC]*eA*e[5mC]*eA*dG*dT*dT*dT*d[5mC]*dT*dG*dG*d[5mC]*dA*eG*eG*e[5mC]*e[5mC]*eT) [compound 416849] | 68 |
| 445505 (antisense e[5mC]*eG*eG*e[5mC]*eA*eT*dT*dG*dG*dT*dG*d[5mC]*dA*d[5mC]*eA*eG*eT*eT*eT*e[5mC]) [compound 445505] | 77 |
| 445503 (antisense GCATTGGTGCACAGTTTCTG; 6-8-6 gapmer chemical modifications, chemistry not fully specified) [compound 445503] | 60 |

What follows are substances tested on human Factor XI mRNA (assay: Antisense inhibition in HepG2 cells by microwalk gapmers, 75 nM, lipofectin (Example 3)). Conditions: HepG2 cells, 75 nM, oligonucleotides targeted to nucleobases 1275 to 1318 of SEQ ID NO: 1.
Assay type: cell-based
Procedure, shortened: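 HepG2 cells (10,000 per well) were transfected with 75 nM gapmer using lipofectin and treated for about 24 h. Factor XI mRNA was quantified by real-time PCR, normalized to RiboGreen total RNA and expressed as percent inhibition versus untreated controls.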

| Substance | % inhibition of human Factor XI mRNA levels [%] |
| --- | --- |
| 416857 (antisense e[5mC]*eG*eG*e[5mC]*eA*dT*dT*dG*dG*dT*dG*d[5mC]*dA*d[5mC]*dA*eG*eT*eT*eT*e[5mC]) [compound 416857] | 92 |
| 416853 (antisense eT*eT*eG*eG*eT*dG*d[5mC]*dA*d[5mC]*dA*dG*dT*dT*dT*d[5mC]*eT*eG*eG*e[5mC]*eA) [compound 416853] | 91 |
| 416862 (antisense eA*eG*e[5mC]*eG*eG*dA*d[5mC]*dG*dG*d[5mC]*dA*dT*dT*dG*dG*eT*eG*e[5mC]*eA*e[5mC]) [compound 416862] | 90 |
| 416849 (antisense eG*e[5mC]*eA*e[5mC]*eA*dG*dT*dT*dT*d[5mC]*dT*dG*dG*d[5mC]*dA*eG*eG*e[5mC]*e[5mC]*eT) [compound 416849] | 88 |

These substances were tested on human Factor XI mRNA (assay: Antisense inhibition in HepG2 cells by microwalk gapmers, 8,000 nM, electroporation (Example 14)). Conditions: HepG2 cells, 8,000 nM.
Assay type: cell-based
Protocol: These microwalk gapmers were tested in vitro. Cultured HepG2 cells at a density of 20,000 cells per well were transfected using electroporation with 8,000 nM antisense oligonucleotide. After a treatment period of approximately 24 hours, RNA was isolated from the cells and Factor XI mRNA levels were measured by quantitative real-time PCR. Factor XI mRNA levels were adjusted according to total RNA content, as measured by RIBOGREEN. Results are presented as percent inhibition of Factor XI, relative to untreated control cells.
The chimeric antisense oligonucleotides in Table 51 were designed as 5-10-5 MOE, 5-8-5 and 6-8-6 MOE gapmers. The first two listed gapmers in Table 51 are the original gapmers (ISIS 416850 and ISIS 416858) from which ISIS 445493-445543 were designed via microwalk, and are designated by an asterisk. The 5-10-5 gapmers are 20 nucleotides in length, wherein the central gap segment is comprised of ten 2′-deoxynucleotides and is flanked on both sides (in the 5′ and 3′ directions) by wings comprising five nucleotides each. The 5-8-5 gapmers are 18 nucleotides in length, wherein the central gap segment is comprised of eight 2′-deoxynucleotides and is flanked on both sides (in the 5′ and 3′ directions) by wings comprising five nucleotides each. The 6-8-6 gapmers are 20 nucleotides in length, wherein the central gap segment is comprised of eight 2′-deoxynucleotides and is flanked on both sides (in the 5′ and 3′ directions) by wings comprising six nucleotides each. For each of the motifs (5-10-5, 5-8-5 and 6-8-6), each nucleotide in the 5′ wing segment and each nucleotide in the 3′ wing segment has a 2′-MOE modification. The internucleoside linkages throughout each gapmer are phosphorothioate (P═S) linkages. All cytidine residues throughout each gapmer are 5-methylcytidines. “Human Target start site” indicates the 5′-most nucleotide to which the gapmer is targeted in the human sequence. “Human Target stop site” indicates the 3′-most nucleotide to which the gapmer is targeted in the human sequence. Each gapmer listed in Table 51 is targeted to SEQ ID NO: 1 (GENBANK Accession No. NM_000128.3). Each gapmer is Table 51 is also fully cross-reactive with the rhesus monkey Factor XI gene sequence, designated herein as SEQ ID NO: 274 (exons 1-15 GENBANK Accession No. NW—001118167.1). ‘Rhesus monkey start site’ indicates the 5′-most nucleotide to which the gapmer is targeted in the rhesus monkey sequence. ‘Rhesus monkey stop site’ indicates the 3′-most nucleotide to which the gapmer is targeted to the rhesus monkey sequence.

| Substance | Percent inhibition of human Factor XI mRNA levels [%] |
| --- | --- |
| 445498 (antisense GGTGCACAGTTTCTGGCAGG; 6-8-6 gapmer chemistry, chemistry not fully specified) [compound 445498] | 83 |
| 416857 (antisense e[5mC]*eG*eG*e[5mC]*eA*dT*dT*dG*dG*dT*dG*d[5mC]*dA*d[5mC]*dA*eG*eT*eT*eT*e[5mC]) [compound 416857] | 91 |
| 416853 (antisense eT*eT*eG*eG*eT*dG*d[5mC]*dA*d[5mC]*dA*dG*dT*dT*dT*d[5mC]*eT*eG*eG*e[5mC]*eA) [compound 416853] | 84 |
| 416862 (antisense eA*eG*e[5mC]*eG*eG*dA*d[5mC]*dG*dG*d[5mC]*dA*dT*dT*dG*dG*eT*eG*e[5mC]*eA*e[5mC]) [compound 416862] | 89 |
| 445532 (antisense e[5mC]*eG*eG*e[5mC]*eA*dT*dT*dG*dG*dT*dG*d[5mC]*dA*e[5mC]*eA*eG*eT*eT) [compound 445532] | 89 |
| 445504 (antisense eG*eG*e[5mC]*eA*eT*eT*dG*dG*dT*dG*d[5mC]*dA*d[5mC]*dA*eG*eT*eT*eT*e[5mC]*eT) [compound 445504] | 87 |
| 416849 (antisense eG*e[5mC]*eA*e[5mC]*eA*dG*dT*dT*dT*d[5mC]*dT*dG*dG*d[5mC]*dA*eG*eG*e[5mC]*e[5mC]*eT) [compound 416849] | 88 |
| 445505 (antisense e[5mC]*eG*eG*e[5mC]*eA*eT*dT*dG*dG*dT*dG*d[5mC]*dA*d[5mC]*eA*eG*eT*eT*eT*e[5mC]) [compound 445505] | 89 |
| 445503 (antisense GCATTGGTGCACAGTTTCTG; 6-8-6 gapmer chemical modifications, chemistry not fully specified) [compound 445503] | 89 |
